“And” between values parts separate entries of the source, which are not always exact repeats. Equal values may be shown once. Read-outs that look alike come from different tables or passages of the source.
Legend:
E. coli (ATCC 25922) = assay: Inactivation of E. coli by disinfectants (membrane filter enumeration, contact time 5 min); format: cell-based, Escherichia coli; settings: for log reduction at 500 µg/mL: dose 500 mg L-1, 5 min, read-out: Log (N/N0)
Summary of the method: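 E. coli ATCC 25922 (10^6‒10^7 cells/mL) exposed to a series of DBP doses in 10 mM PBS (pH 7.2; pH effect tested at 6.2, 7.2, 8.2) for 5 min at 22 ± 1 °C. Survivors enumerated by membrane filtration on m-FC medium at 45 °C for 24 h; inactivation relative to undisinfected control.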

P. dumerilii embryos = assay: Developmental toxicity assay with P. dumerilii embryos, dilution factor of in-use concentration (EC50,DF), also after degradation in darkness; format: in vivo, Platynereis dumerilii
Summary of the method: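 In-use DBP doses (3-log E. coli reduction, pH 7.2) were serially diluted onto embryos at 12 h postfertilization in seawater. Normal development to first larval stage was scored by microscopy at 24 h postfertilization, in duplicate. EC50,DF is the dilution factor giving 50% of control normal development.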

[1] = Degradation in seawater with simulated solar irradiation
Summary of the method: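 DBP at 10 mg L^−1 in pretreated seawater was irradiated with simulated sunlight (4.79 ± 0.04 mW cm^−2) at 20 °C for 0‒96 h, with dark samples alongside. pH was held at 8.2 or set to 6.2/7.2 with 4 mM phosphate buffer. Remaining compound and products were measured by HPLC-UV (230/280 nm), in duplicate.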

[2] = Degradation in seawater in darkness (pH 6.2, 7.2, 8.2)
Summary of the method: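 DBP spiked at 10 mg L^−1 into pretreated seawater in foil-wrapped quartz flasks, held at 20 °C in darkness for 0‒120 h with 4 mM phosphate buffer at pH 6.2, 7.2 or 8.2. Aliquots analysed by reversed-phase HPLC-UV (230 or 280 nm); duplicate runs.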

Oc1cc(I)c(O)cc1I [2,5-DIHQ, 2,5-diiodohydroquinone]
log reduction at 500 µg/mL (E. coli (ATCC 25922); Escherichia coli, ATCC25922, 5 min, pH 6.2, E. coli, pH 6.2): 1.76
log reduction at 500 µg/mL (E. coli (ATCC 25922); Escherichia coli, ATCC25922, 5 min, pH 7.2, E. coli, pH 7.2): 3.66
log reduction at 500 µg/mL (E. coli (ATCC 25922); Escherichia coli, ATCC25922, 5 min, pH 8.2, E. coli, pH 8.2): 5.5
EC (3-log inactivation) (E. coli (ATCC 25922); Escherichia coli, ATCC25922, 5 min, pH 7.2, contact time 5 min, read-out: Dose for achieving 3-log inactivation of E. coli): 459 µg/mL
E. coli inactivation rate constant k (E. coli (ATCC 25922); pH 7.2, contact time 5 min): 0.13 L mg‒1 h‒1
Normal development (%) (P. dumerilii embryos; dilution factor 86.0274): 0.8729% and 0%
Normal development (%) (P. dumerilii embryos; dilution factor 103.233): 7.707% and 3.405%
Normal development (%) (P. dumerilii embryos; dilution factor 129.041): 16.1617% and 11.8279%
Normal development (%) (P. dumerilii embryos; dilution factor 172.055): 46.0177% and 46.8181%
Normal development (%) (P. dumerilii embryos; dilution factor 258.082): 63.2599% and 58.9623%
Normal development (%) (P. dumerilii embryos; dilution factor 516.165): 88.6525% and 83.3333%
half-life at 10 mg L−1 ([1]; pretreated seawater under simulated solar irradiation, pH 8.2): 9.6 min
Ln (C/C0) ([1]; seawater pH 8.2, solar irradiation, 0 min): 0
Relative concentration remaining (1 at 0 min) ([2]; pH 6.2, degradation time 0 min): 1
Relative concentration remaining (1 at 0 min) ([2]; pH 6.2, degradation time 15 min): 1.009 and 0.9751
Relative concentration remaining (1 at 0 min) ([2]; pH 6.2, degradation time 30 min): 1.028 and 0.9729
Relative concentration remaining (1 at 0 min) ([2]; pH 6.2, degradation time 60 min): 1.02 and 0.9831
Relative concentration remaining (1 at 0 min) ([2]; pH 6.2, degradation time 90 min): 0.9778 and 1.02
Relative concentration remaining (1 at 0 min) ([2]; pH 6.2, degradation time 120 min): 1 and 0.9297
Relative concentration remaining (1 at 0 min) ([2]; pH 6.2, degradation time 180 min): 0.9306 and 0.9617
Relative concentration remaining (1 at 0 min) ([2]; pH 6.2, degradation time 240 min): 0.9273 and 0.981
Relative concentration remaining (1 at 0 min) ([2]; pH 7.2, degradation time 0 min): 1
Relative concentration remaining (1 at 0 min) ([2]; pH 7.2, degradation time 15 min): 1.0017 and 0.9494
Relative concentration remaining (1 at 0 min) ([2]; pH 7.2, degradation time 30 min): 1.002 and 0.9365
Relative concentration remaining (1 at 0 min) ([2]; pH 7.2, degradation time 45 min): 0.934 and 0.9212
Relative concentration remaining (1 at 0 min) ([2]; pH 7.2, degradation time 60 min): 0.9213 and 0.886
Relative concentration remaining (1 at 0 min) ([2]; pH 7.2, degradation time 90 min): 0.8145 and 0.7791
Relative concentration remaining (1 at 0 min) ([2]; pH 7.2, degradation time 120 min): 0.7145 and 0.6664
Relative concentration remaining (1 at 0 min) ([2]; pH 7.2, degradation time 180 min): 0.5609 and 0.5354
Relative concentration remaining (1 at 0 min) ([2]; pH 8.2, degradation time 0 min): 1
Relative concentration remaining (1 at 0 min) ([2]; pH 8.2, degradation time 3 min): 0.721 and 0.687
Relative concentration remaining (1 at 0 min) ([2]; pH 8.2, degradation time 8 min): 0.4796 and 0.4372
Relative concentration remaining (1 at 0 min) ([2]; pH 8.2, degradation time 12 min): 0.4155 and 0.3689
Relative concentration remaining (1 at 0 min) ([2]; pH 8.2, degradation time 16 min): 0.2998 and 0.2743
Relative concentration remaining (1 at 0 min) ([2]; pH 8.2, degradation time 20 min): 0.2215 and 0.1988
Relative concentration remaining (1 at 0 min) ([2]; pH 8.2, degradation time 25 min): 0.1592 and 0.1253
half-life at 10 mg L−1 ([2]; pretreated seawater in darkness, pH 8.2): 9.6 min
Ln (C/C0) ([2]; seawater pH 8.2, darkness, 0 min): 0
